Each structure is given as a SMILES string.

In the experiment the target is T1, BTK (Homo sapiens, UniProt Q06187).
T1 construct: endogenous in cells; host or cells: Mino cells
T1 sequence (Q06187 whole entry): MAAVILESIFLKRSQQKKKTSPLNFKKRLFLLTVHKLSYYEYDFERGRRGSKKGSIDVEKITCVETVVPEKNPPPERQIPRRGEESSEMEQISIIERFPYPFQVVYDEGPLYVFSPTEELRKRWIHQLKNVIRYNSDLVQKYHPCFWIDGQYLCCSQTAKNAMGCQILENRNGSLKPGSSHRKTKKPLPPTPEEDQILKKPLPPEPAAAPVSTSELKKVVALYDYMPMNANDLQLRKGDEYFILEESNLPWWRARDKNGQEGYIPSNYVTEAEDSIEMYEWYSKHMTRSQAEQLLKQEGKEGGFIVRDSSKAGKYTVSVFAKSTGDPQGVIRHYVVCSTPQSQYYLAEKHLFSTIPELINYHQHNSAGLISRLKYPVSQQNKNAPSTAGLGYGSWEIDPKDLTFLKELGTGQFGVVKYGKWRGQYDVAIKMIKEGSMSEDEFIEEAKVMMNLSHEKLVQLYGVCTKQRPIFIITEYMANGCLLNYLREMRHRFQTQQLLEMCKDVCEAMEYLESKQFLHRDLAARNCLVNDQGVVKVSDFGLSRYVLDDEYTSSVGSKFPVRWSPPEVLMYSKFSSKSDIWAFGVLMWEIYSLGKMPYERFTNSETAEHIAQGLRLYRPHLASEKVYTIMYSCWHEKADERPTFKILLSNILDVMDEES
Description: BTK degradation activity test in Mino cells. To be noted: 16 h incubation, Western blot or Elisa. The class given is cell-based. The procedure, abridged: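 DC50 derived by curve fitting of BTK degradation rates versus untreated control across compound concentrations. Mino cells were exposed for 16 h; BTK levels in lysates, normalised via BCA protein, measured by Western blot or ELISA.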
For orientation: A western blot detects proteins with antibodies after separation by electrophoresis.
Broadly, the DC50 is the concentration at which degradation of the target reaches its halfway point. Read a high DC50 as degradation only at high concentration. `NC(=O)c1nnc(N2CCCC(N3CCN(c4ccccc4)C3=O)C2)nc1Nc1ccc(N2CCN(CC3CCN(c4ccc5c(c4)C(=O)N(C4CCC(=O)NC4=O)C5=O)CC3)CC2)cc1` (stereo not shown) [Compound 095, 5-((4-(4-((1-(2-(2,6-dioxopiperidin-3-yl)-1,3-dioxoisoindol-5-yl)piperidin-4-yl)methyl)piperazin-1-yl)phenyl)amino)-3-(3-(2-oxo-3-phenylimidazolin-1-yl)piperidin-1-yl)-1,2,4-triazin-6-carboxamide] displayed a DC50 below 1 nM.

In turn, `CN1CCN([C@@H]2CCCN(c3nnc(C(N)=O)c(Nc4ccc(N5CCN(C[C@H]6CCN(c7ccc8c(c7)C(=O)N(C7CCC(=O)NC7=O)C8=O)C6)CC5)c(Cl)c4)n3)C2)C1=O` (stereo partly drawn) [Compound 160, 5-((3-chloro-4-(4-(((3R)-1-(2-(2,6-dioxopiperidin-3-yl)-1,3-dioxoisoindolin-5-yl)pyrrolidin-3-yl)methyl)piperazin-1-yl)phenyl)amino)-3-((R)-3-(3-methyl-2-oxoimidazolidin-1-yl)piperidin-1-yl)-1,2,4-triazin-6-carboxamide] returned a DC50 below 1 nM.

In turn, `CN1CCN(C2CC3CC2N(c2nnc(C(N)=O)c(Nc4ccc(C5(C)CCN(C6CN(c7ccc8c(c7)C(=O)N(C7CCC(=O)NC7=O)C8=O)C6)CC5)cc4)n2)C3)C1=O` (stereo not shown) [Compound 105, 5-((4-(1-(1-(2-(2,6-dioxopiperidin-3-yl)-1,3-dioxoisoindol-5-yl)azetidin-3-yl)-4-methylpiperidin-4-yl)phenyl)amino)-3-(6-(3-methyl-2-oxoimidazolin-1-yl)-2-azabicyclo[2.2.1]heptan-2-yl)-1,2,4-triazin-6-carboxamide] returned a DC50 below 1 nM.

The compound `NC(=O)c1nnc(N2CCCC(N3CCN(C4CC4)C3=O)C2)nc1Nc1ccc(C2CCN(CC3CCN(c4ccc5c(c4)C(=O)N(C4CCC(=O)NC4=O)C5=O)CC3)CC2)cc1` (stereo not shown) [Compound 058, 3-(3-(3-cyclopropyl-2-oxoimidazolin-1-yl)piperidin-1-yl)-5-((4-(1-((1-(2-(2,6-dioxopiperidin-3-yl)-1,3-dioxoisoindol-5-yl)piperidin-4-yl)methyl)piperidin-4-yl)phenyl)amino)-1,2,4-triazin-6-carboxamide] yielded a DC50 below 1 nM.

For `CN1CCN(C2CCCN(c3nnc(C(N)=O)c(Nc4ccc(N5CCN(CC6CCN(c7ccc8c(c7)C(=O)N(C7CCC(=O)NC7=O)C8=O)CC6)CC5)cc4)n3)C2)C1=O` (stereo not shown) [Compound 082, 5-((4-(4-((1-(2-(2,6-dioxopiperidin-3-yl)-1,3-dioxoisoindol-5-yl)piperidin-4-yl)methyl)piperazin-1-yl)phenyl)amino)-3-(3-(3-methyl-2-oxoimidazolin-1-yl)piperidin-1-yl)-1,2,4-triazin-6-carboxamide], the DC50 is below 1 nM.

As to `CN1CCN([C@@H]2CCCN(c3nnc(C(N)=O)c(Nc4ccc(N5CCN(CC6CCN(c7ccc8c9c(cccc79)C(=O)N8C7CCC(=O)NC7=O)CC6)CC5)c(F)c4)n3)C2)C1=O` (stereo partly drawn) [Compound 247, 5-((4-(4-((1-(1-(2,6-dioxopiperidin-3-yl)-2-oxo-1,2-dihydrobenzo[cd]indol-6-yl)piperidin-4-yl)methyl)piperazin-1-yl)-3-fluorophenyl)amino)-3-((R)-3-(3-methyl-2-oxoimidazolidin-1-yl)piperidin-1-yl)-1,2,4-triazin-6-carboxamide], the DC50 is below 1 nM.

In turn, `NC(=O)c1nnc(N2CC3CC(N4CCN(C5CCCC5)C4=O)C2C3)nc1Nc1ccc(C2CCN(CC3CCN(c4ccc5c(c4)C(=O)N(C4CCC(=O)NC4=O)C5=O)CC3)CC2)cc1` (stereo not shown) [Compound 072, 3-(6-(3-cyclopentyl-2-oxoimidazolin-1-yl)-2-azabicyclo[2.2.1]heptan-2-yl)-5-((4-(1-((1-(2-(2,6-dioxopiperidin-3-yl)-1,3-dioxoisoindol-5-yl)piperidin-4-yl)methyl)piperidin-4-yl)phenyl)amino)-1,2,4-triazin-6-carboxamide] yielded a DC50 below 1 nM.

With `CN1CCN(C2CCCN(c3nnc(C(N)=O)c(Nc4ccc5c(c4)CCN(C4CN(c6ccc7c(c6)C(=O)N(C6CCC(=O)NC6=O)C7=O)C4)C5)n3)C2)C1=O` (stereo not shown) [Compound 080], the DC50 is below 1 nM.

For the compound `CN1CCN(C2CC3CC2N(c2nnc(C(N)=O)c(Nc4ccc(C5CCN(CC6CCN(c7cc8c(cc7F)C(=O)N(C7CCC(=O)NC7=O)C8=O)CC6)CC5)cc4)n2)C3)C1=O` (stereo not shown) [Compound 111, 5-((4-(1-((1-(2-(2,6-dioxopiperidin-3-yl)-6-fluoro-1,3-dioxoisoindol-5-yl)piperidin-4-yl)methyl)piperidin-4-yl)phenyl)amino)-3-(6-(3-methyl-2-oxoimidazolin-1-yl)-2-azabicyclo[2.2.1]heptan-2-yl)-1,2,4-triazin-6-carboxamide], the DC50 was below 1 nM.

The compound `NC(=O)c1ncc(N2CCCC(N3CCN(C4CCCC4)C3=O)C2)nc1Nc1ccc(C2CCN(CC3CCN(c4ccc5c(c4)C(=O)N(C4CCC(=O)NC4=O)C5=O)C3)CC2)cc1F` (stereo not shown) [Compound 041, 5-(3-(3-cyclopentyl-2-oxoimidazolin-1-yl)piperidin-1-yl)-3-((4-(1-((1-(2-(2,6-dioxopiperidin-3-yl)-1,3-dioxoisoindolin-5-yl)pyrrolidin-3-yl)methyl)piperidin-4-yl)-2-fluorophenyl)amino)pyrazin-2-carboxamide] showed a DC50 below 1 nM.

Take `CC1(c2ccc(Nc3nc(N4CCCC(N5CCN(C6COC6)C5=O)C4)cnc3C(N)=O)cc2)CCN(C2CN(c3ccc4c(c3)C(=O)N(C3CCC(=O)NC3=O)C4=O)C2)CC1` (stereo not shown) [Compound 002, 3-((4-(1-(1-(2-(2,6-dioxopiperidin-3-yl)-1,3-dioxoisoindol-5-yl)azetidine-3-yl)-4-methylpiperidin-4-yl)phenyl)amino)-5-(3-(3-(oxetan-3-yl)-2-oxoimidazolin-1-yl)piperidin-1-yl)pyrazin-2-carboxamide]: the DC50 was below 1 nM.

`CN1CCN(C2CC3CC2N(c2nnc(C(N)=O)c(Nc4ccc(C5CCN(CC6CCN(c7ccc8c(c7)n(C)c(=O)n8C7CCC(=O)NC7=O)CC6)CC5)cc4)n2)C3)C1=O` (stereo not shown) [Compound 114, 5-((4-(1-((1-(1-(2,6-dioxopiperidin-3-yl)-3-methyl-2-oxo-2,3-dihydro-1H-benzo[d]imidazol-5-yl)piperidin-4-yl)methyl)piperidin-4-yl)phenyl)amino)-3-(6-(3-methyl-2-oxoimidazolin-1-yl)-2-azabicyclo[2.2.1]heptan-2-yl)-1,2,4-triazin-6-carboxamide] registered a DC50 below 1 nM.

`Cc1cc(N2CC(CC(=O)N3CCC(c4ccc(Nc5nc(N6CCC[C@@H](N7CCN(C)C7=O)C6)nnc5C(N)=O)c(CO)c4)CC3)C2)ccc1N1CCC(=O)NC1=O` [Compound 239, (R)-5-((4-(1-(2-(1-(4-(2,4-dioxotetrahydropyrimidin-1(2H)-yl)-3-methylphenyl)azetidin-3-yl)acetyl)piperidin-4-yl)-2-(hydroxymethyl)phenyl)amino)-3-(3-(3-methyl-2-oxoimidazolidin-1-yl)piperidin-1-yl)-1,2,4-triazin-6-carboxamide] returned a DC50 below 1 nM.

`CN1CCN(C2CC3CC2N(c2nnc(C(N)=O)c(Nc4ccc(C5CCN(C6CN(c7ccc8c(c7)C(=O)N(C7CCC(=O)NC7=O)C8=O)C6)CC5)cc4)n2)C3)C1=O` (stereo not shown) [Compound 103, 5-((4-(1-(1-(2-(2,6-dioxopiperidin-3-yl)-1,3-dioxoisoindol-5-yl)azetidin-3-yl)piperidin-4-yl)phenyl)amino)-3-(6-(3-methyl-2-oxoimidazolin-1-yl)-2-azabicyclo[2.2.1]heptan-2-yl)-1,2,4-triazin-6-carboxamide]: the half-maximal degradation concentration (DC50) was below 1 nM.

For `NC(=O)c1nnc(N2CCCC(N3CCN(c4ccccc4)C3=O)C2)nc1Nc1ccc(N2CCC(N3CCN(CC#Cc4ccc5c(c4)CN(C4CCC(=O)NC4=O)C5=O)CC3)CC2)cc1` (stereo not shown) [Compound 097], the DC50 was above 1 nM.

In turn, `CN1CCN(C2CC3CCC2N(c2cnc(C(N)=O)c(Nc4ccc(C5CCN(C6CN(c7ccc8c(c7)C(=O)N(C7CCC(=O)NC7=O)C8=O)C6)CC5)cc4)n2)C3)C1=O` (stereo not shown) [Compound 050, 3-((4-(1-(1-(2-(2,6-dioxopiperidin-3-yl)-1,3-dioxoisoindolin-5-yl)azetidin-3-yl)piperidin-4-yl)phenyl)amino)-5-(-6-(3-methyl-2-oxoimidazolin-1-yl)-2-azabicyclo[2.2.2]octan-2-yl)pyrazin-2-carboxamide] had a DC50 below 1 nM.

`CN1CCN([C@@H]2CCCN(c3nnc(C(N)=O)c(Nc4ccc(N5CCN(CC6CCN(c7ccc8c(C9CCC(=O)NC9=O)nn(C)c8n7)CC6)CC5)c(F)c4)n3)C2)C1=O` (stereo partly drawn) [Compound 215, 5-((4-(4-((1-(3-(2,6-dioxopiperidin-3-yl)-1-methyl-1H-pyrazolyl[3,4-b]pyridin-6-yl)piperidin-4-yl)methyl)piperazin-1-yl)-3-fluorophenyl)amino)-3-((R)-3-(3-methyl-2-oxoimidazolidin-1-yl)piperidin-1-yl)-1,2,4-triazin-6-carboxamide] came in with a DC50 below 1 nM.

In turn, `CN1CCN(C2CC3CC2N(c2nnc(C(N)=O)c(Nc4ccc(C5CCN(C6CN(c7ccc8c(c7)C(=O)N(C7CCC(=O)NC7=O)C8=O)C6)CC5)cc4)n2)C3)C1=O` (stereo not shown) [Compound 049, 5-((4-(1-(1-(2-(2,6-dioxopiperidin-3-yl)-1,3-dioxoisoindolin-5-yl)azetidin-3-yl)piperidin-4-yl)phenyl)amino)-3-(-6-(3-methyl-2-oxoimidazolin-1-yl)-2-azabicyclo[2.2.1]heptan-2-yl)-1,2,4-triazin-6-carboxamide] showed a DC50 below 1 nM.

For the compound `CN1CCN([C@@H]2CCCN(c3nnc(C(N)=O)c(Nc4ccc(N5CCN(CC6CCN(c7ccc(N8CCC(=O)NC8=O)cc7)CC6)C(=O)C5)c(F)c4)n3)C2)C1=O` [Compound 235, (R)-5-((4-(4-((1-(4-(2,4-dioxotetrahydropyrimidin-1(2H)-yl)phenyl)piperidin-4-yl)methyl)-3-oxopiperazin-1-yl)-3-fluorophenyl)amino)-3-(3-(3-methyl-2-oxoimidazolidin-1-yl)piperidin-1-yl)-1,2,4-triazin-6-carboxamide], the DC50 was below 1 nM.

Source of the values: patent US20240360146A1, “BRUTON'S TYROSINE KINASE AND MUTANT DEGRADER, COMPOSITION AND APPLICATION THEREOF” (HANGZHOU HEALZEN THERAPEUTICS CO., LTD., priority 2021, published 2024).
